Values joined by “and” are separate entries in the source; they are usually repeats but may differ in a detail not shown here. Equal entries are not always repeated.
Assays:
Efl1 R1086Q = target: T1, Efl1 R1086Q (Saccharomyces cerevisiae, UniProt P53893, R1086Q); assay: Isothermal titration calorimetry (ITC): binding of guanine nucleotides or Sdo1 to Efl1 R1086Q; conditions: for Kd / -TΔSb / ΔGb / ΔHb / ΔCpb: guanine nucleotide; for ΔCpb: from ΔHb at 25–35 °C
T1 construct: made in house; host or cells: Saccharomyces cerevisiae
T1 sequence (P53893 whole entry R1086Q): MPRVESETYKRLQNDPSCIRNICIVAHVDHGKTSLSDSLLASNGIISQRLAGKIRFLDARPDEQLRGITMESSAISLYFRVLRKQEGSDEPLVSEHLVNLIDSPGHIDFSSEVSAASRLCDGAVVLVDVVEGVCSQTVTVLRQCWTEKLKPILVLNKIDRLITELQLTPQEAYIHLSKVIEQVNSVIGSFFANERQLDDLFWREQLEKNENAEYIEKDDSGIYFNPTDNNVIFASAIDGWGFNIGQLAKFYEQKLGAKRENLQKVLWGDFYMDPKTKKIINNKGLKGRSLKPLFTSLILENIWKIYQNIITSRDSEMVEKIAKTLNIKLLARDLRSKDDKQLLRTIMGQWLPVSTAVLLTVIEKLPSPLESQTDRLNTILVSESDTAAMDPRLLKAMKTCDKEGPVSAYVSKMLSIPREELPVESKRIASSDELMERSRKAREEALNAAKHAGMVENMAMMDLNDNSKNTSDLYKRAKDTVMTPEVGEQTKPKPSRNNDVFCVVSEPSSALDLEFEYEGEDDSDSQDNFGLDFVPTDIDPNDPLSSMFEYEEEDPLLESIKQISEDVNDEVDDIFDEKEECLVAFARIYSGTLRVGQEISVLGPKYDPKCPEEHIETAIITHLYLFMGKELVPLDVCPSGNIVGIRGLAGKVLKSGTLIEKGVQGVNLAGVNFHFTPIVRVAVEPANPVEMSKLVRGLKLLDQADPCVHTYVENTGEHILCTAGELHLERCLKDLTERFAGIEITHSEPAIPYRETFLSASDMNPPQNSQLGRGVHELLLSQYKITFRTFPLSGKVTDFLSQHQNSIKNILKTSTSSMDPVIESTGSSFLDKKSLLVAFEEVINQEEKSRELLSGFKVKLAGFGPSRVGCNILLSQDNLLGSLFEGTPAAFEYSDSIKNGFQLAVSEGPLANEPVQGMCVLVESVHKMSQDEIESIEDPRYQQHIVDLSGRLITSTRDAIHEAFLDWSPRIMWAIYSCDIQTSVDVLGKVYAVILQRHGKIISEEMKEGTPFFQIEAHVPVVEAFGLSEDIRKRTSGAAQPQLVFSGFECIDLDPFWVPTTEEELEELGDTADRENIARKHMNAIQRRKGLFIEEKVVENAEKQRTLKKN
Method in brief: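 ITC at 25–35 °C in 50 mM Tris-HCl pH 8.0, 150 mM NaCl, 5% glycerol, with 5 mM MgCl2 or 2 mM EDTA; 30–50 µM GTPase in cell, 2–3 mM nucleotide titrated, eight-fold Sdo1 excess for complex. Kb, ΔHb, n from one-site fit; Mg isotherms by ternary coupled-equilibria model.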

wild-type Efl1•Sdo1 = system: wild-type Efl1•Sdo1; parameters: method as in PMID 30780079; conditions: −Mg^2+, cited from earlier work
[1] = Effect of Mg^2+, Efl1 R1086Q − Sdo1, 25 °C
[2] = Effect of Mg^2+, Efl1 R1086Q − Sdo1, 30 °C
[3] = Effect of Mg^2+, Efl1 R1086Q − Sdo1, 35 °C
[4] = Effect of Sdo1, Efl1 R1086Q + Mg^2+, 25 °C
[5] = Effect of Sdo1, Efl1 R1086Q + Mg^2+, 30 °C
[6] = Effect of Sdo1, Efl1 R1086Q + Mg^2+, 35 °C
[7] = Effect of Sdo1, Efl1 R1086Q − Mg^2+, 25 °C
[8] = Effect of Sdo1, Efl1 R1086Q − Mg^2+, 30 °C
[9] = Effect of Sdo1, Efl1 R1086Q − Mg^2+, 35 °C

## Nc1nc2c(ncn2[C@@H]2O[C@H](COP(=O)(O)OP(=O)(O)OP(=O)(O)O)[C@@H](O)[C@H]2O)c(=O)[nH]1 [GTP]
Efl1 R1086Q; +Mg^2+, 30 °C
  Nconfres (number of residues changing conformation, absolute value): 3
  Nconfrotb (number of routable bonds changing conformation, absolute value): 21
  ΔCpconf: 35 cal mol^−1 K^−1
  ΔSb: 25 cal mol^−1 K^−1
  ΔSconf: 36 cal mol^−1 K^−1
  ΔSsolv: −2 cal mol^−1 K^−1
  −ΔASAconf: −157 Å^2
  Kd: 16 ± 3 µM
  -TΔSb: -7.74 kcal/mol
  ΔGb: -6.67 kcal/mol
  ΔHb: 1.07 ± 0.03 kcal/mol
Efl1 R1086Q; [1]
  -TΔs: 0.5 kcal/mol
  Δg: -0.1 kcal/mol
  Δh: -0.56 kcal/mol
  κ (heterotropic cooperativity): 1.0
Efl1 R1086Q; [2]
  -TΔs: 1.2 kcal/mol
  Δg: 0.6 kcal/mol
  Δh: -0.63 kcal/mol
  κ (heterotropic cooperativity): 0.4
Efl1 R1086Q; [3]
  -TΔs: 1.3 kcal/mol
  Δg: 0.5 kcal/mol
  Δh: -0.78 kcal/mol
  κ (heterotropic cooperativity): 0.4
Efl1 R1086Q; [4]
  -TΔs: 2.5 kcal/mol
  Δg: 0.3 kcal/mol
  Δh: -2.1 kcal/mol
  κ (heterotropic cooperativity): 0.6
Efl1 R1086Q; [5]
  -TΔs: 4.8 kcal/mol
  Δg: 0.7 kcal/mol
  Δh: -4.1 kcal/mol
  κ (heterotropic cooperativity): 0.3
Efl1 R1086Q; [6]
  -TΔs: 7.1 kcal/mol
  Δg: 0.9 kcal/mol
  Δh: -6.2 kcal/mol
  κ (heterotropic cooperativity): 0.3
Efl1 R1086Q; [7]
  -TΔs: 5.6 kcal/mol
  Δg: 0.0 kcal/mol
  Δh: -5.6 kcal/mol
  κ (heterotropic cooperativity): 1.0
Efl1 R1086Q; [8]
  -TΔs: 6.3 kcal/mol
  Δg: 0.7 kcal/mol
  Δh: -5.6 kcal/mol
  κ (heterotropic cooperativity): 0.3
Efl1 R1086Q; [9]
  -TΔs: 6.5 kcal/mol
  Δg: 0.9 kcal/mol
  Δh: -5.6 kcal/mol
  κ (heterotropic cooperativity): 0.2
Efl1 R1086Q; +Mg^2+, 25 °C
  Kd: 16 ± 2 µM
  -TΔSb: -7.57 kcal/mol
  ΔGb: -6.53 kcal/mol
  ΔHb: 1.04 ± 0.05 kcal/mol
Efl1 R1086Q; +Mg^2+, 35 °C
  Kd: 13 ± 2 µM
  -TΔSb: -8.0 kcal/mol
  ΔGb: -6.88 kcal/mol
  ΔHb: 1.12 ± 0.06 kcal/mol
Efl1 R1086Q; −Mg^2+, 25 °C
  Kd: 17 ± 5 µM
  -TΔSb: -8.12 kcal/mol
  ΔGb: -6.52 kcal/mol
  ΔHb: 1.6 ± 0.3 kcal/mol
Efl1 R1086Q; −Mg^2+, 30 °C
  Kd: 6 ± 1 µM
  -TΔSb: -8.90 kcal/mol
  ΔGb: -7.20 kcal/mol
  ΔHb: 1.7 ± 0.1 kcal/mol
  Nconfres (number of residues changing conformation, absolute value): 4
  Nconfrotb (number of routable bonds changing conformation, absolute value): 27
  ΔCpconf: 41 cal mol^−1 K^−1
  ΔSb: 29 cal mol^−1 K^−1
  ΔSconf: 44 cal mol^−1 K^−1
  ΔSsolv: −7 cal mol^−1 K^−1
  −ΔASAconf: −184 Å^2
Efl1 R1086Q; −Mg^2+, 35 °C
  Kd: 6 ± 1 µM
  -TΔSb: -9.30 kcal/mol
  ΔGb: -7.40 kcal/mol
  ΔHb: 1.9 ± 0.1 kcal/mol
Efl1 R1086Q; +Mg^2+
  ΔCpb: 10 ± 2 cal mol^−1 K^−1 and 10 cal mol^−1 K^−1
Efl1 R1086Q; −Mg^2+
  ΔCpb: 30 cal mol^−1 K^−1 and 30 ± 6 cal mol^−1 K^−1
Efl1 R1086Q; mutant Efl1
  overall heat-capacity change to drive the protein into ternary complex GTPase•GTP•Sdo1: −410 cal mol^−1 K^−1
wild-type Efl1•Sdo1; 30 °C
  -TΔSb: -4.7 kcal/mol
  Kd: 11 µM
  ΔGb: -6.8 kcal/mol
  ΔHb: -2.1 ± 0.2 kcal/mol
wild-type Efl1•Sdo1
  ΔCpb: −90 cal mol^−1 K^−1 and −90 ± 5 cal mol^−1 K^−1

— publication PMC9405973, “Altered Conformational Landscape upon Sensing Guanine Nucleotides in a Disease Mutant of Elongation Factor-like 1 (EFL1) GTPase” (Biomolecules, 2022)
